Target: T1, human Orexin-2 receptor (Homo sapiens, UniProt O43614)
T1 construct: expressed in transfected cells; host or cells: HEK293 cells (transient transfection, Genejuice); membranes
T1 sequence (O43614 1-444): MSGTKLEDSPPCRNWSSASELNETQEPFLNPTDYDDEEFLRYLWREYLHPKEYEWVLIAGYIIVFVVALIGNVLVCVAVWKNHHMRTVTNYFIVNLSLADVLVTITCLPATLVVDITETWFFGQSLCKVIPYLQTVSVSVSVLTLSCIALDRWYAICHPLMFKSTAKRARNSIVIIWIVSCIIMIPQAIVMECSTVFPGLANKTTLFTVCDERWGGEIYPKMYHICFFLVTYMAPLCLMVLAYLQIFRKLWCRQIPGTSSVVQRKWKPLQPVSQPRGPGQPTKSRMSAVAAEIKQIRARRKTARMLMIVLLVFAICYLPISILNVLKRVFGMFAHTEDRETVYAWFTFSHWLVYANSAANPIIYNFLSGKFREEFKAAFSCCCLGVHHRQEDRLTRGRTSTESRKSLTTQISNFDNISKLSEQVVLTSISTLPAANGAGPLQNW
Test: 3H-EMPA radioligand binding assay
Settings: 3H-EMPA displacement, membranes of HEK293 cells transfected with human Orexin-2 receptor; KI by Cheng-Prussoff; read-out: OX2 pKi ave (converted)
Procedure, shortened: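 Membranes from HEK293 cells transiently transfected with human orexin-2 receptor cDNA, assayed with [3H]EMPA. Bound ligand collected on PEI-treated GF/B filters and counted by scintillation; IC50 from inhibition curves, Ki by Cheng-Prusoff.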

Row | Compound | Ki [nM]
1 | O=C1N(Cc2c(F)cccc2Cl)c2ccccc2S(=O)(=O)N1CC1CCOCC1 [Example 117, 4-(2-Chloro-6-fluorobenzyl)-2-(tetrahydro-2H-pyran-4-ylmethyl)-2H-1,2,4-benzothiadiazin-3(4H)-one 1,1-dioxide] | 372
2 | CC1(CN2C(=O)N(Cc3c(F)cccc3Cl)c3ccccc3S2(=O)=O)COC1 [Example 118, 4-(2-Chloro-6-fluorobenzyl)-2-[(3-methyloxetan-3-yl)methyl]-2H-1,2,4-benzothiadiazin-3(4H)-one 1,1-dioxide] | 372
3 | Cc1noc(C)c1CCN1C(=O)N(Cc2c(F)cccc2F)c2ccccc2S1(=O)=O [Example 120, 4-(2,6-Difluorobenzyl)-2-[2-(3,5-dimethyl-1,2-oxazol-4-yl)ethyl]-2H-1,2,4-benzothiadiazin-3(4H)-one 1,1-dioxide] | 178
4 | COc1ccnc(CN2C(=O)N(Cc3c(F)cccc3F)c3ccccc3S2(=O)=O)c1OC [Example 121, 4-(2,6-Difluorobenzyl)-2-[(3,4-dimethoxypyridin-2-yl)methyl]-2H-1,2,4-benzothiadiazin-3(4H)-one 1,1-dioxide] | 87.1
5 | COc1ccc(N2C(=O)N(Cc3c(F)cccc3Cl)c3c(F)cccc3S2(=O)=O)cn1 [Example 123, 4-(2-Chloro-6-fluorobenzyl)-5-fluoro-2-(6-methoxypyridin-3-yl)-2H-1,2,4-benzothiadiazin-3(4H)-one 1,1-dioxide] | 43.7
6 | Cn1nc(CN2C(=O)N(Cc3c(F)cccc3F)c3ccccc3S2(=O)=O)c2ccccc21 [Example 125, 4-(2,6-Difluorobenzyl)-2-[(1-methyl-1H-indazol-3-yl)methyl]-2H-1,2,4-benzothiadiazin-3(4H)-one 1,1-dioxide] | 38
7 | O=C1N(Cc2c(F)cccc2F)c2ccccc2S(=O)(=O)N1Cc1cc(=O)[nH]c2ccccc12 [Example 126, 4-(2,6-Difluorobenzyl)-2-[(2-oxo-1,2-dihydroquinolin-4-yl)methyl]-2H-1,2,4-benzothiadiazin-3(4H)-one 1,1-dioxide] | 35.5
8 | Cc1cc(CN2C(=O)N(Cc3c(F)cccc3Cl)c3ccccc3S2(=O)=O)n(C)n1 [Example 127, 4-(2-Chloro-6-fluorobenzyl)-2-[(1,3-dimethyl-1H-pyrazol-5-yl)methyl]-2H-1,2,4-benzothiadiazin-3(4H)-one 1,1-dioxide] | 58.9
9 | O=C1N(Cc2c(F)cccc2Cl)c2ccccc2S(=O)(=O)N1Cc1ccccn1 [Example 128, 4-(2-Chloro-6-fluorobenzyl)-2-(pyridin-2-ylmethyl)-2H-1,2,4-benzothiadiazin-3(4H)-one 1,1-dioxide] | 79.4
10 | Cc1cc(CN2C(=O)N(Cc3c(F)cccc3Cl)c3ccccc3S2(=O)=O)no1 [Example 129, 4-(2-Chloro-6-fluorobenzyl)-2-[(5-methyl-1,2-oxazol-3-yl)methyl]-2H-1,2,4-benzothiadiazin-3(4H)-one 1,1-dioxide] | 115
11 | COc1ccc(N2C(=O)N(Cc3ccccc3C)c3c(F)cccc3S2(=O)=O)cn1 [Example 130, 5-Fluoro-2-(6-methoxypyridin-3-yl)-4-(2-methylbenzyl)-2H-1,2,4-benzothiadiazin-3(4H)-one 1,1-dioxide] | 87.1
12 | CCN1CCCC(N2C(=O)N(Cc3c(F)cccc3F)c3ccccc3S2(=O)=O)C1 (centres unmarked) [Example 133, 4-(2,6-Difluorobenzyl)-2-(1-ethylpiperidin-3-yl)-2H-1,2,4-benzothiadiazin-3(4H)-one 1,1-dioxide] | 661
13 | Cc1cc(CN2C(=O)N(Cc3ccc(Cl)cc3F)c3ccccc3S2(=O)=O)n(C)n1 [Example 134, 4-(4-Chloro-2-fluorobenzyl)-2-[(1,3-dimethyl-1H-pyrazol-5-yl)methyl]-2H-1,2,4-benzothiadiazin-3(4H)-one 1,1-dioxide] | 39.8

Results, then the compound that gave them:

Row | Ki [nM] | Compound
14 | 2.24 | COc1cc(F)c(CN2C(=O)N(c3cccc(S(C)(=O)=O)c3)S(=O)(=O)c3ccccc32)c(F)c1 [Example 111, 4-(2,6-Difluoro-4-methoxybenzyl)-2-[3-(methylsulfonyl)phenyl]-2H-1,2,4-benzothiadiazin-3(4H)-one 1,1-dioxide]
15 | 26.9 | CS(=O)(=O)c1cccc(N2C(=O)N(Cc3c(F)cc(F)cc3F)c3ccccc3S2(=O)=O)c1 [Example 112, 2-[3-(Methylsulfonyl)phenyl]-4-(2,4,6-trifluorobenzyl)-2H-1,2,4-benzothiadiazin-3(4H)-one 1,1-dioxide]
16 | 0.0912 | COc1cc(F)c(CN2C(=O)N(c3ccc(OC)c(OC)c3)S(=O)(=O)c3ccccc32)c(Cl)c1 [Example 113, 4-(2-Chloro-6-fluoro-4-methoxybenzyl)-2-(3,4-dimethoxyphenyl)-2H-1,2,4-benzothiadiazin-3(4H)-one 1,1-dioxide]
17 | 12.9 | Cc1cc(N2C(=O)N(Cc3c(F)cc(F)cc3F)c3ccccc3S2(=O)=O)cc(C)c1O [Example 114, 2-(4-Hydroxy-3,5-dimethylphenyl)-4-(2,4,6-trifluorobenzyl)-2H-1,2,4-benzothiadiazin-3(4H)-one 1,1-dioxide]
18 | 0.355 | COc1c(C)cc(N2C(=O)N(Cc3c(F)cc(F)cc3F)c3ccccc3S2(=O)=O)cc1C [Example 115, 2-(4-methoxy-3,5-dimethylphenyl)-4-(2,4,6-trifluorobenzyl)-2H-1,2,4-benzothiadiazin-3(4H)-one 1,1-dioxide]
19 | 1.15 | COc1ccc(N2C(=O)N(Cc3c(F)cc(O)cc3F)c3ccccc3S2(=O)=O)cc1OC [Example 116, 4-(2,6-Difluoro-4-hydroxybenzyl)-2-(3,4-dimethoxyphenyl)-2H-1,2,4-benzothiadiazin-3(4H)-one 1,1-dioxide]
20 | 66.1 | Cc1nc(CN2C(=O)N(Cc3c(F)cccc3F)c3ccccc3S2(=O)=O)cs1 [Example 119, 4-(2,6-Difluorobenzyl)-2-[(2-methyl-1,3-thiazol-4-yl)methyl]-2H-1,2,4-benzothiadiazin-3(4H)-one 1,1-dioxide]
21 | 16.6 | COc1ccc(N2C(=O)N(Cc3c(F)cccc3Cl)c3ccccc3S2(=O)=O)cn1 [Example 122, 4-(2-Chloro-6-fluorobenzyl)-2-(6-methoxypyridin-3-yl)-2H-1,2,4-benzothiadiazin-3(4H)-one 1,1-dioxide]
22 | 5.01 | O=C1N(Cc2c(F)cc(F)cc2F)c2ccccc2S(=O)(=O)N1c1ccc2ncsc2c1 [Example 124, 2-(1,3-Benzothiazol-6-yl)-4-(2,4,6-trifluorobenzyl)-2H-1,2,4-benzothiadiazin-3(4H)-one 1,1-dioxide]
23 | 295 | Cn1ccnc1CN1C(=O)N(Cc2c(F)cccc2F)c2ccccc2S1(=O)=O [Example 131, 4-(2,6-Difluorobenzyl)-2-[(1-methyl-1H-imidazol-2-yl)methyl]-2H-1,2,4-benzothiadiazin-3(4H)-one 1,1-dioxide]
24 | 302 | Cn1cc(N2C(=O)N(Cc3c(F)cccc3Cl)c3ccccc3S2(=O)=O)ccc1=O [Example 132, 4-(2-Chloro-6-fluorobenzyl)-2-(1-methyl-6-oxo-1,6-dihydropyridin-3-yl)-2H-1,2,4-benzothiadiazin-3(4H)-one 1,1-dioxide]
25 | 13.8 | COc1ccc(N2C(=O)N(Cc3c(F)cc(C)cc3Cl)c3ccccc3S2(=O)=O)cn1 [Example 135, 4-(2-Chloro-6-fluoro-4-methylbenzyl)-2-(6-methoxypyridin-3-yl)-2H-1,2,4-benzothiadiazin-3(4H)-one 1,1-dioxide]
26 | 10.7 | COc1cc(F)c(CN2C(=O)N(c3ccc(OC)nc3)S(=O)(=O)c3ccccc32)c(F)c1 [Example 136, 4-(2,6-Difluoro-4-methoxybenzyl)-2-(6-methoxypyridin-3-yl)-2H-1,2,4-benzothiadiazin-3(4H)-one 1,1-dioxide]
27 | 38 | COc1ncc(N2C(=O)N(Cc3c(F)cccc3Cl)c3ccccc3S2(=O)=O)cn1 [Example 137, 4-(2-Chloro-6-fluorobenzyl)-2-(2-methoxypyrimidin-5-yl)-2H-1,2,4-benzothiadiazin-3(4H)-one 1,1-dioxide]
28 | 1.45 | COc1cc(F)c(CN2C(=O)N(c3cccc(OC)n3)S(=O)(=O)c3ccccc32)c(F)c1 [Example 138, 4-(2,6-Difluoro-4-methoxybenzyl)-2-(6-methoxypyridin-2-yl)-2H-1,2,4-benzothiadiazin-3(4H)-one 1,1-dioxide]
29 | 13.8 | COc1cccc(N2C(=O)N(Cc3c(F)cc(F)cc3Cl)c3ccccc3S2(=O)=O)n1 [Example 139, 4-(2-Chloro-4,6-difluorobenzyl)-2-(6-methoxypyridin-2-yl)-2H-1,2,4-benzothiadiazin-3(4H)-one 1,1-dioxide]
30 | 3.31 | COc1cc(F)c(CN2C(=O)N(c3ccnc(OC)c3)S(=O)(=O)c3ccccc32)c(F)c1 [Example 140, 4-(2,6-Difluoro-4-methoxybenzyl)-2-(2-methoxypyridin-4-yl)-2H-1,2,4-benzothiadiazin-3(4H)-one 1,1-dioxide]
31 | 6.92 | COc1cc(N2C(=O)N(Cc3c(F)cc(F)cc3Cl)c3ccccc3S2(=O)=O)ccn1 [Example 141, 4-(2-Chloro-4,6-difluorobenzyl)-2-(2-methoxypyridin-4-yl)-2H-1,2,4-benzothiadiazin-3(4H)-one 1,1-dioxide]
32 | 29.5 | Cc1ccc(N2C(=O)N(Cc3c(F)cccc3Cl)c3ccccc3S2(=O)=O)cn1 [Example 142, 4-(2-Chloro-6-fluorobenzyl)-2-(6-methylpyridin-3-yl)-2H-1,2,4-benzothiadiazin-3(4H)-one 1,1-dioxide]

From patent US10316028B2, “Orexin receptor antagonists” (Heptares Therapeutics Limited, priority 2012, dated 2019)
